Legend:
[1] = tested on: atopic dermatitis-induced Nc/Nga mouse; test: SCORAD clinical skin score, DNFB-induced atopic dermatitis in Nc/Nga mouse; format: in vivo; parameters: key to Mouse 1 Erythema / Mouse 2 Eschar / Mouse 2 Dryness / Mouse 2 Abrasion / Mouse 1 Edema / Mouse 1 Eschar / Mouse 1 Dryness / Mouse 1 Abrasion / Mouse 2 Erythema / Mouse 2 Edema / Mouse 3 Erythema / Mouse 3 Edema / Mouse 3 Eschar / Mouse 3 Dryness / Mouse 3 Abrasion: 0 = no symptom, 1 = mild, 2 = moderate, 3 = severe; key to Mouse 1 Sum / Mean (of Sum, SCORAD) / Mouse 3 Sum: sum of individual symptom scores, each graded 0-3; details: for dermatitis-treating effect of L-, L/D- and D-form (FIG. 6): Nc/Nga atopic dermatitis model, 0.1%; for Mouse 1 Erythema: DNFB Nc/Nga (FIG. 8), 0.1% in PBS, 200 μL on back skin daily day 15-21; for Mouse 1 Erythema / Mouse 1 Abrasion / Mouse 1 Dryness / Mouse 1 Edema / Mouse 1 Eschar / Mouse 1 Lichenification / Mouse 2 Abrasion / Mouse 2 Dryness / Mouse 2 Edema / Mouse 2 Erythema / Mouse 2 Eschar / Mouse 2 Lichenification / Mouse 3 Abrasion / Mouse 3 Dryness / Mouse 3 Edema / Mouse 3 Erythema / Mouse 3 Eschar / Mouse 3 Lichenification: graded per Example 4; for Mouse 1 Abrasion / Mouse 1 Dryness / Mouse 1 Edema / Mouse 1 Eschar / Mouse 1 Lichenification / Mouse 1 Sum / Mouse 2 Abrasion / Mouse 2 Dryness / Mouse 2 Edema / Mouse 2 Erythema / Mouse 2 Eschar / Mouse 2 Lichenification / Mouse 2 Sum / Mouse 3 Abrasion / Mouse 3 Dryness / Mouse 3 Edema / Mouse 3 Erythema / Mouse 3 Eschar / Mouse 3 Lichenification / Mouse 3 Sum / Mean (of Sum, SCORAD): DNFB Nc/Nga, 0.1% topical day 15-21; for Mouse 1 Sum / Mouse 2 Sum / Mouse 3 Sum: sum of individual scores; for Mean (of Sum, SCORAD): mean of 3 mice
Description: In order to establish a model more similar to an atopy model than that of the Balb/c mice, atopy was induced in Nc/Nga mouse mice. Specifically, after inducing DNFB sensitization by applying 100 μL of 0.35% 2,4-dinitrofluorobenzene (DNFB) in acetone/olive oil (3:1) on the shaved back skin, dermatitis was induced by applying 100 μL of 0.15% DNFB for 4-20 days, every other day. Control mice were treated with a vehicle of the same volume (FIG. 1B).
(§1) After dissolving an N-acetyl or N-acylamino acid in phosphate-buffered saline to 0.1%, 200 μL of the solution was applied on the back skin of the mice every day, from day 22 until day 28 for the Balb/c atopic dermatitis model, and from day 15 until day 21 for the Nc/Nga atopic dermatitis model. When the N-acetyl or N-acylamino acid was treated together with DNFB, they were treated with 12-hour intervals in order to avoid direct reaction between the DNFB and the N-acetyl or N-acylamino acid. A non-treated group and a 2,4-dinitrofluorobenzene (DNFB) group were treated with phosphate-buffered saline of the same volume (FIGS. 1A-1B). As the N-acetylamino acid, products purchased from Sigma-Aldrich (USA), MP scientific (USA), TCI (Tokyo Chemical Industry, Japan), Santacruz (USA), etc. were used without purification.
(§2) The degree of skin soothing and the severity of atopic dermatitis were evaluated macroscopically according to the previously established SCORAD (SCORing Atopic Dermatitis) method (Oranje et al., 2007). The degree of symptoms such as edema, erythema, eschar, dryness, abrasion, lichenification, etc. was graded from 0 to 3 (0, no symptom; 1, mild; 2, moderate; 3, severe). The overall dermatitis score was determined from the sum of all individual scores (Table 1). The assessment was performed by an investigator who was blind to the grouping of the mice.
Skin-soothing effect and the severity of dermatitis were evaluated for the acyl derivatives of tryptophan synthesized in Example 9, the acyl derivative of alanine synthesized in Example 10 and N-palmitoylalanine (purchased from Santacruz (USA)) according to the method of Example 4 (Table 2)

[2] = tested on: atopic dermatitis-induced Balb/c mouse; test: SCORAD clinical skin score, DNFB-induced atopic dermatitis in Balb/c mouse; format: in vivo; parameters: key to Mouse 1 Sum / Mean (of Sum, SCORAD) / Mouse 2 Sum / Mouse 3 Sum: sum of symptom grades, each 0 (none) to 3 (severe); details: DNFB Balb/c; for Mouse 1 Erythema: 0.1% in PBS, 200 μL on back skin daily day 22-28, grade 0-3 (0 no symptom, 1 mild, 2 moderate, 3 severe); for Mouse 1 Abrasion / Mouse 1 Dryness / Mouse 1 Edema / Mouse 1 Eschar / Mouse 1 Lichenification / Mouse 1 Sum / Mouse 2 Abrasion / Mouse 2 Dryness / Mouse 2 Edema / Mouse 2 Erythema / Mouse 2 Eschar / Mouse 2 Lichenification / Mouse 2 Sum / Mouse 3 Abrasion / Mouse 3 Dryness / Mouse 3 Edema / Mouse 3 Erythema / Mouse 3 Eschar / Mouse 3 Lichenification / Mouse 3 Sum / Mean (of Sum, SCORAD): 0.1% topical day 22-28; for Mouse 1 Abrasion / Mouse 1 Dryness / Mouse 1 Edema / Mouse 1 Eschar / Mouse 1 Lichenification / Mouse 2 Abrasion / Mouse 2 Dryness / Mouse 2 Edema / Mouse 2 Erythema / Mouse 2 Eschar / Mouse 2 Lichenification / Mouse 3 Abrasion / Mouse 3 Dryness / Mouse 3 Edema / Mouse 3 Erythema / Mouse 3 Eschar / Mouse 3 Lichenification: grade 0-3; for Mouse 1 Sum / Mouse 2 Sum / Mouse 3 Sum: overall dermatitis score, sum of individual scores; for Mean (of Sum, SCORAD): mean of 3 mice
Description: In order to induce atopy-like dermatitis in Balb/c mice, DNFB sensitization was induced by applying 100 μL of 0.35% 2,4-dinitrofluorobenzene (DNFB) (Sigma, USA) in acetone/olive oil (3:1) on the shaved back skin of the mice. Then, dermatitis was induced by applying 100 μL of 0.25% DNFB on days 6, 9, 12, 15, 18 21, 24 and 27 on the shaved back skin. Control mice were treated with a vehicle of the same volume (FIG. 1A).
as §1, §2

## CC(=O)N[C@@H](C)C(=O)O [D-form N-acetylalanine, N-acetylalanine, reference compound]
[1]
  dermatitis-treating effect of L-, L/D- and D-form (FIG. 6): no effect

## CC(=O)N[C@@H](Cc1c[nH]c2ccccc12)C(=O)O [D-form N-acetyltryptophan, N-acetyltryptophan, reference compound]
[1]
  dermatitis-treating effect of L-, L/D- and D-form (FIG. 6): no effect

## CCCCCCCC/C=C\CCCCCCCCCCCC(=O)N[C@@H](Cc1c[nH]c2ccccc12)C(=O)O [N-(Z)-docos-13-enoyl L-tryptophan, N—(Z)-docos-13-enoyl-L-tryptophan]
[1]
  Mouse 1 Erythema: 1
  Mouse 1 Abrasion: 1
  Mouse 1 Dryness: 1
  Mouse 1 Edema: 1
  Mouse 1 Eschar: 1
  Mouse 1 Lichenification: 0
  Mouse 1 Sum: 5
  Mouse 2 Abrasion: 1
  Mouse 2 Dryness: 2
  Mouse 2 Edema: 1
  Mouse 2 Erythema: 1
  Mouse 2 Eschar: 2
  Mouse 2 Lichenification: 0
  Mouse 2 Sum: 7
  Mouse 3 Abrasion: 1
  Mouse 3 Dryness: 2
  Mouse 3 Edema: 1
  Mouse 3 Erythema: 2
  Mouse 3 Eschar: 2
  Mouse 3 Lichenification: 1
  Mouse 3 Sum: 9
  Mean (of Sum, SCORAD): 7

## CC(=O)N1CCC[C@H]1C(=O)O [N-acetyl-L-proline]
[2]
  Mouse 1 Erythema: 3
  Mouse 1 Abrasion: 2
  Mouse 1 Dryness: 3
  Mouse 1 Edema: 2
  Mouse 1 Eschar: 1
  Mouse 1 Lichenification: 2
  Mouse 1 Sum: 13
  Mouse 2 Abrasion: 2
  Mouse 2 Dryness: 3
  Mouse 2 Edema: 3
  Mouse 2 Erythema: 2
  Mouse 2 Eschar: 2
  Mouse 2 Lichenification: 2
  Mouse 2 Sum: 14
  Mouse 3 Abrasion: 1
  Mouse 3 Dryness: 3
  Mouse 3 Edema: 2
  Mouse 3 Erythema: 3
  Mouse 3 Eschar: 2
  Mouse 3 Lichenification: 2
  Mouse 3 Sum: 13
  Mean (of Sum, SCORAD): 13.33

## CC(=O)N[C@@H](CO)C(=O)O [N-acetyl-L-serine]
[2]
  Mouse 1 Erythema: 3
  Mouse 1 Abrasion: 2
  Mouse 1 Dryness: 2
  Mouse 1 Edema: 2
  Mouse 1 Eschar: 2
  Mouse 1 Lichenification: 2
  Mouse 1 Sum: 13
  Mouse 2 Abrasion: 2
  Mouse 2 Dryness: 3
  Mouse 2 Edema: 2
  Mouse 2 Erythema: 3
  Mouse 2 Eschar: 2
  Mouse 2 Lichenification: 3
  Mouse 2 Sum: 15
  Mouse 3 Abrasion: 2
  Mouse 3 Dryness: 3
  Mouse 3 Edema: 2
  Mouse 3 Erythema: 3
  Mouse 3 Eschar: 2
  Mouse 3 Lichenification: 2
  Mouse 3 Sum: 14
  Mean (of Sum, SCORAD): 14

## CC(=O)N[C@@H](Cc1ccc(O)cc1)C(=O)O [N-acetyl-L-tyrosme]
[2]
  Mouse 1 Erythema: 3
  Mouse 1 Abrasion: 2
  Mouse 1 Dryness: 3
  Mouse 1 Edema: 2
  Mouse 1 Eschar: 3
  Mouse 1 Lichenification: 2
  Mouse 1 Sum: 15
  Mouse 2 Abrasion: 2
  Mouse 2 Dryness: 3
  Mouse 2 Edema: 2
  Mouse 2 Erythema: 3
  Mouse 2 Eschar: 2
  Mouse 2 Lichenification: 3
  Mouse 2 Sum: 15
  Mouse 3 Abrasion: 2
  Mouse 3 Dryness: 2
  Mouse 3 Edema: 2
  Mouse 3 Erythema: 3
  Mouse 3 Eschar: 2
  Mouse 3 Lichenification: 2
  Mouse 3 Sum: 13
  Mean (of Sum, SCORAD): 14.33

## CC(=O)N[C@H](C(=O)O)C(C)C [N-acetyl-L-valine]
[2]
  Mouse 1 Erythema: 3
  Mouse 1 Abrasion: 2
  Mouse 1 Dryness: 2
  Mouse 1 Edema: 2
  Mouse 1 Eschar: 2
  Mouse 1 Lichenification: 3
  Mouse 1 Sum: 14
  Mouse 2 Abrasion: 2
  Mouse 2 Dryness: 2
  Mouse 2 Edema: 2
  Mouse 2 Erythema: 2
  Mouse 2 Eschar: 2
  Mouse 2 Lichenification: 3
  Mouse 2 Sum: 13
  Mouse 3 Abrasion: 1
  Mouse 3 Dryness: 3
  Mouse 3 Edema: 2
  Mouse 3 Erythema: 2
  Mouse 3 Eschar: 2
  Mouse 3 Lichenification: 2
  Mouse 3 Sum: 12
  Mean (of Sum, SCORAD): 13

## CC(=O)N[C@@H](CCC(=O)N[C@@H](C)C(=O)O)C(=O)O [N-acetyly-glutammyl-L-alanine, N-acetyl-γ-glutammyl-L-alanine]
[1]
  Mouse 1 Erythema: 0
  Mouse 1 Abrasion: 1
  Mouse 1 Dryness: 0
  Mouse 1 Edema: 1
  Mouse 1 Eschar: 0
  Mouse 1 Lichenification: 2
  Mouse 1 Sum: 4
  Mouse 2 Abrasion: 1
  Mouse 2 Dryness: 1
  Mouse 2 Edema: 1
  Mouse 2 Erythema: 1
  Mouse 2 Eschar: 2
  Mouse 2 Lichenification: 2
  Mouse 2 Sum: 8
  Mouse 3 Abrasion: 1
  Mouse 3 Dryness: 0
  Mouse 3 Edema: 1
  Mouse 3 Erythema: 1
  Mouse 3 Eschar: 1
  Mouse 3 Lichenification: 2
  Mouse 3 Sum: 6
  Mean (of Sum, SCORAD): 6

## CCCC(=O)N[C@@H](Cc1c[nH]c2ccccc12)C(=O)O [N-butyryl L-tryptophan, N-butyryl-L-tryptophan]
[1]
  Mouse 1 Erythema: 1
  Mouse 1 Abrasion: 1
  Mouse 1 Dryness: 2
  Mouse 1 Edema: 2
  Mouse 1 Eschar: 2
  Mouse 1 Lichenification: 2
  Mouse 1 Sum: 10
  Mouse 2 Abrasion: 2
  Mouse 2 Dryness: 2
  Mouse 2 Edema: 1
  Mouse 2 Erythema: 2
  Mouse 2 Eschar: 1
  Mouse 2 Lichenification: 2
  Mouse 2 Sum: 10
  Mouse 3 Abrasion: 1
  Mouse 3 Dryness: 1
  Mouse 3 Edema: 1
  Mouse 3 Erythema: 1
  Mouse 3 Eschar: 1
  Mouse 3 Lichenification: 2
  Mouse 3 Sum: 6
  Mean (of Sum, SCORAD): 8.7

## CCCCCCCC/C=C\CCCCCCCC(=O)N[C@@H](Cc1c[nH]c2ccccc12)C(=O)O [N-oleoyl-L-tryptophan]
[1]
  Mouse 1 Erythema: 2
  Mouse 1 Abrasion: 2
  Mouse 1 Dryness: 2
  Mouse 1 Edema: 1
  Mouse 1 Eschar: 2
  Mouse 1 Lichenification: 3
  Mouse 1 Sum: 12
  Mouse 2 Abrasion: 2
  Mouse 2 Dryness: 2
  Mouse 2 Edema: 1
  Mouse 2 Erythema: 1
  Mouse 2 Eschar: 1
  Mouse 2 Lichenification: 3
  Mouse 2 Sum: 10
  Mouse 3 Abrasion: 2
  Mouse 3 Dryness: 2
  Mouse 3 Edema: 1
  Mouse 3 Erythema: 2
  Mouse 3 Eschar: 1
  Mouse 3 Lichenification: 2
  Mouse 3 Sum: 10
  Mean (of Sum, SCORAD): 10.7
